Laboratory results taken from patent publication US7862824B2, “Enhancement of GLP-2 activity of suppressing appetite” (1149336 Ontario, Inc., priority 2001, dated 2011).
Each block holds one compound with its values, some of them ahead of it. Where no end group is shown, it is not given here.

Columns and labels:
rat GLP-2 receptor = target: T1, rat GLP-2 receptor (Rattus norvegicus, UniProt Q9Z0W0); assay: cAMP accumulation in BHK cells stably expressing the rat GLP-2 receptor (RIA); format: cell-based; conditions: BHK-GLP-2R cells
T1 construct: expressed in transfected cells; host or cells: BHK (baby hamster kidney fibroblast) cells, stably transfected
T1 sequence (Q9Z0W0 1-550): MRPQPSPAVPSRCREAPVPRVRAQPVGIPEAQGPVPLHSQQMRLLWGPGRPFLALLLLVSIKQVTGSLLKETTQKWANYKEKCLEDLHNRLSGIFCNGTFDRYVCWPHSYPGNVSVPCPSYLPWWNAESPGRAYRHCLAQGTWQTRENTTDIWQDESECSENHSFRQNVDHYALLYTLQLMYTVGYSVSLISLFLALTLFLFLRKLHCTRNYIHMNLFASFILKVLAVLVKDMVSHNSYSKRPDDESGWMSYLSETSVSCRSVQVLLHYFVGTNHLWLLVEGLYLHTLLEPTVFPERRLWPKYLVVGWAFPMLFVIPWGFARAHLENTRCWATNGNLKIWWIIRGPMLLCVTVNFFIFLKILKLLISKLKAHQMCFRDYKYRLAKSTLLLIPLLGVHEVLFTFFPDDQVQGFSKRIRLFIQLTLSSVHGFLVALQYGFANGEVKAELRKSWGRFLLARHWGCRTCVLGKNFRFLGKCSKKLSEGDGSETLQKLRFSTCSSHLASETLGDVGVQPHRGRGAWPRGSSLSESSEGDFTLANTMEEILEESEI
Procedure: Peptides were diluted in DMEM containing 100 μM IBMX. The cAMP concentration in aliquots of ethanol extract was determined using a RIA and normalized to show cAMP/well. […] The concentration of peptide is plotted on a logarithmic scale. Error bars represent mean±SD.
GLP-2 receptors were propagated as previously described (42) and levels of intracellular cAMP were assayed following exposure to individual peptides in DMEM containing 100 μM IBMX (Sigma Chemical Co., St. Louis, Mo.) as reported (41,42). […] The treated cells were then incubated at 37° C. for 10 minutes. Absolute ethanol (−20° C.) was added to terminate the reaction and the plates were stored at −80° C. until the cell extracts were collected (2-4 hours later). Forskolin was used as a positive control. Cyclic adenosine monophosphate (cAMP) radioimmunoassays (Biomedical Technologies, Stoughton, Mass.) were performed on dried aliquots of extract and data was normalized to cAMP/well. All treatments were performed in triplicate or quadruplicate and the data is expressed as mean±SD. EC50 values were calculated using GraphPad Prism 3.00 (GraphPad Software Inc., San Diego, Calif.).

rat GLP-1 receptor = target: T2, rat GLP-1 receptor (Rattus norvegicus, UniProt P32301); assay: cAMP accumulation in BHK cells stably expressing the rat GLP-1 receptor (RIA); format: cell-based; conditions: BHK-GLP-1R cells
T2 construct: expressed in transfected cells; host or cells: BHK (baby hamster kidney fibroblast) cells, stably transfected
T2 sequence (P32301 22-463): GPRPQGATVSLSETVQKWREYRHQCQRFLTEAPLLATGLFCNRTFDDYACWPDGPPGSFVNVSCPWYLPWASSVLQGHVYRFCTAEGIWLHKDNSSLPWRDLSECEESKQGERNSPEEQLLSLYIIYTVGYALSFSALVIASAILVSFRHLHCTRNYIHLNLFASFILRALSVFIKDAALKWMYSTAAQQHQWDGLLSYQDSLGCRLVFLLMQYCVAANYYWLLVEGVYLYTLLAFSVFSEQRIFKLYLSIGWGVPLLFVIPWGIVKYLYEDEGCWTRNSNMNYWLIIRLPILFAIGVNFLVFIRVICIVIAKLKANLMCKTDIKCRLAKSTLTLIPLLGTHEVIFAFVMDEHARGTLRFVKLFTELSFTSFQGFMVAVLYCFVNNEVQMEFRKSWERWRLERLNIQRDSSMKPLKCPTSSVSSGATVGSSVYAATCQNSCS

adult male CD1 mice = assay: Intracerebroventricular peptide injection and food intake in wildtype mice; format: in vivo, mouse; conditions: for dark phase food intake: icv prior to dark phase; for dark phase food intake / food intake in fasted mice: h[Gly2]-GLP-2 50 ug, exendin-4 1 ug; for food intake in fasted mice: after 15 hour fast
Procedure: FIG. 1: h[Gly^2]-GLP-2 (also designated “440” in the Figure) inhibits dark phase food intake in mice. […] Following recovery, food intake was measured at 1, 2, and 4 hours (Hr) after injection. Values are expressed as mean±S.E.M., n=6 per group for (a) and n=8-20 for (b). (c) Groups of wildtype mice were administered either vehicle (PBS), h[Gly^2]-GLP-2 (50 ug dissolved in PBS), h[Gly^2]-GLP-2 and exendin (9-39) (50 ug of each peptide dissolved in PBS) or exendin (9-39) alone (50 ug dissolved in PBS) via icv injection. (f) Groups of wildtype mice were administered (icv) either vehicle (PBS), h[Gly^2]-GLP-2 alone (50 ug dissolved in PBS), or h[Gly^2]-GLP-2 (50 ug dissolved in PBS) and exendin (9-39) (0.05, 0.5 or 5 ug dissolved in PBS). (e) Groups of wildtype and GLP-1R−/− mice were injected icv with either vehicle (PBS) or h[Gly^2]-GLP-2 (50 ug dissolved in PBS) just prior to the start of dark phase and food intake was measured at 1, 2, and 4 hours. Data are expressed as mean±S.E.M., n=5-8 for all groups. Treatments at each time point for experiments shown in FIG. 1 were compared using a one way analysis of variance followed by an LSD multiple range test using SPSS for Windows version 5.0.1 (SPSS Inc., Chicago Ill.). *p<0.05 compared to controls (PBS), or to comparisons between groups indicated by connected lines.
For icv injections adult male CD1 mice randomized into multiple experimental groups were deeply anesthetized by inhalation of methoxyflurane (Metophane; Janssen, Toronto Ontario) (43). Following icv injections of equal volumes of saline or peptide dissolved in saline, animals were allowed to recover for ^˜15-20 minutes until the observation of a righting-response. Mice were then weighed, given a premeasured quantity of rodent chow and food intake was quantified at 1, 2, 4 and 22 hours. The accuracy of icv injection was verified at autopsy analysis by detection of bromophenol dye in the lateral ventricles of selected animals. Animals were injected with peptide at either 19:00 hours (for dark phase feeding studies) or at 10:00 hours following an overnight fast of 15 hours (for fasting studies).

GLP-1R-/- mice = assay: Intracerebroventricular peptide injection and food intake in GLP-1R-/- mice; format: in vivo, mouse; conditions: icv 50 ug; dark phase; 0-1 hour and 2-4 hour time points
Procedure: FIG. 1: h[Gly^2]-GLP-2 (also designated “440” in the Figure) inhibits dark phase food intake in mice. […] Following recovery, food intake was measured at 1, 2, and 4 hours (Hr) after injection. Values are expressed as mean±S.E.M., n=6 per group for (a) and n=8-20 for (b). (c) Groups of wildtype mice were administered either vehicle (PBS), h[Gly^2]-GLP-2 (50 ug dissolved in PBS), h[Gly^2]-GLP-2 and exendin (9-39) (50 ug of each peptide dissolved in PBS) or exendin (9-39) alone (50 ug dissolved in PBS) via icv injection. (f) Groups of wildtype mice were administered (icv) either vehicle (PBS), h[Gly^2]-GLP-2 alone (50 ug dissolved in PBS), or h[Gly^2]-GLP-2 (50 ug dissolved in PBS) and exendin (9-39) (0.05, 0.5 or 5 ug dissolved in PBS). (e) Groups of wildtype and GLP-1R−/− mice were injected icv with either vehicle (PBS) or h[Gly^2]-GLP-2 (50 ug dissolved in PBS) just prior to the start of dark phase and food intake was measured at 1, 2, and 4 hours. Data are expressed as mean±S.E.M., n=5-8 for all groups. […]
For icv injections adult male CD1 mice randomized into multiple experimental groups were deeply anesthetized by inhalation of methoxyflurane (Metophane; Janssen, Toronto Ontario) (43). […] Mice were then weighed, given a premeasured quantity of rodent chow and food intake was quantified at 1, 2, 4 and 22 hours. […]

rats = conditions: cited from earlier work
[1] = tested on: human subjects with short bowel syndrome; conditions: 400 ug twice daily; cited from earlier work

EC50 (rat GLP-2 receptor; 0 nM Exendin (9-39) pre-treatment): 44 pM
EC50 (rat GLP-2 receptor; in the presence of 50 nM Exendin (9-39)): 59 pM
EC50 (rat GLP-2 receptor; in the presence of 500 nM Exendin (9-39)): 76 pM
EC50 (rat GLP-2 receptor; in the presence of 1000 nM Exendin (9-39)): 81 pM
cAMP accumulation (agonist effect) (rat GLP-1 receptor): no effect on cAMP accumulation
Compound: CC[C@H](C)[C@H](NC(=O)[C@H](Cc1ccccc1)NC(=O)[C@H](CC(=O)O)NC(=O)[C@H](CCCNC(=N)N)NC(=O)[C@H](C)NC(=O)[C@H](C)NC(=O)[C@H](CC(C)C)NC(=O)[C@H](CC(N)=O)NC(=O)[C@H](CC(=O)O)NC(=O)[C@H](CC(C)C)NC(=O)[C@@H](NC(=O)[C@@H](NC(=O)[C@H](CC(N)=O)NC(=O)[C@H](CCSC)NC(=O)[C@H](CCC(=O)O)NC(=O)[C@H](CC(=O)O)NC(=O)[C@H](CO)NC(=O)[C@H](Cc1ccccc1)NC(=O)[C@H](CO)NC(=O)CNC(=O)[C@H](CC(=O)O)NC(=O)CNC(=O)[C@@H](N)Cc1c[nH]cn1)[C@@H](C)O)[C@@H](C)CC)C(=O)N[C@@H](CC(N)=O)C(=O)N[C@@H](Cc1c[nH]c2ccccc12)C(=O)N[C@@H](CC(C)C)C(=O)N[C@H](C(=O)N[C@@H](CCC(N)=O)C(=O)N[C@H](C(=O)N[C@@H](CCCCN)C(=O)N[C@H](C(=O)N[C@H](C(=O)N[C@@H](CC(=O)O)C(=O)O)[C@@H](C)O)[C@@H](C)CC)[C@@H](C)O)[C@@H](C)CC [h[Gly^2]-GLP-2]
cAMP accumulation (agonist effect) (rat GLP-2 receptor): increased cAMP accumulation in a dose-dependent manner
dark phase food intake (adult male CD1 mice): significantly inhibited
food intake in fasted mice (adult male CD1 mice; icv): not
food intake in the first hour after injection, absence of exendin (9-39) (adult male CD1 mice; icv, dark phase, 50 ug): did not inhibit food intake
duration of inhibitory effect on food intake (adult male CD1 mice; icv, data not shown): transient and not detectable after more than 4 hours
inhibition of food intake with co-administered exendin (9-39) (adult male CD1 mice; icv, wildtype mice, 50 ug of each peptide, multiple time intervals including first hour): significantly more pronounced
inhibition of food intake in GLP-1R-/- mice compared with +/+ control mice (GLP-1R-/- mice): significantly greater sensitivity

Compound: Rat GLP-1 (7-36)NH2 [reference compound]
cAMP accumulation (agonist effect) (rat GLP-2 receptor): no cAMP accumulation was detected

Compound: exendin (9-39) [reference compound]
effect on h[Gly2]-GLP-2-stimulated cAMP formation (antagonism) (rat GLP-2 receptor; exendin (9-39) 50-1000 nM): no effect
effect on GLP-1-stimulated cAMP accumulation (antagonism) (rat GLP-1 receptor): decreased GLP-1-stimulated cAMP accumulation in a concentration-dependent manner
amount sufficient for significant potentiation of anorectic effect of h[Gly2]-GLP-2 (adult male CD1 mice; icv with h[Gly2]-GLP-2 50 ug, dark phase, 1-2 hour time point): 0.05 µg
effect on the anorectic effects of GLP-2 in rats (rats): completely inhibited

Compound: exendin-4 [reference compound]
cAMP accumulation (agonist effect) (rat GLP-2 receptor): no cAMP accumulation was detected
dark phase food intake (adult male CD1 mice): significantly inhibited
food intake in fasted mice (adult male CD1 mice; icv): inhibited food intake
inhibitory effect on dark phase food intake compared with h[Gly2]-GLP-2 (adult male CD1 mice; icv, dark phase): significantly more potent

Compound: glucagon-like peptide 2 (HADGSFSDEMNTILDNLAARDFINWLIQTKITD; also: acetate salt; UniProt P01275 146-178, looked up) [GLP-2, wild type glucagon-like peptide 2; literature results in rats (icv) and in humans as acetate salt]
food intake in rats after icv infusion (rats; icv): inhibited food intake
therapeutic response in short bowel patients [1]: significant therapeutic response
